Measured values taken from US9512107B2, “Therapeutically active compositions and their methods of use” (Agios Pharmaceuticals, Inc., priority 2012, dated 2016).
Residue numbers refer to the chain shown, from its start.

What was measured:
[1] = biological target: T1, IDH2 R140Q (Homo sapiens, UniProt P48735, R140Q); assay: IDH2 R140Q enzymatic assay (cofactor depletion, similar format); type: biochemical; conditions: read-out: Enz R140Q
T1 sequence (P48735 40-452 R140Q): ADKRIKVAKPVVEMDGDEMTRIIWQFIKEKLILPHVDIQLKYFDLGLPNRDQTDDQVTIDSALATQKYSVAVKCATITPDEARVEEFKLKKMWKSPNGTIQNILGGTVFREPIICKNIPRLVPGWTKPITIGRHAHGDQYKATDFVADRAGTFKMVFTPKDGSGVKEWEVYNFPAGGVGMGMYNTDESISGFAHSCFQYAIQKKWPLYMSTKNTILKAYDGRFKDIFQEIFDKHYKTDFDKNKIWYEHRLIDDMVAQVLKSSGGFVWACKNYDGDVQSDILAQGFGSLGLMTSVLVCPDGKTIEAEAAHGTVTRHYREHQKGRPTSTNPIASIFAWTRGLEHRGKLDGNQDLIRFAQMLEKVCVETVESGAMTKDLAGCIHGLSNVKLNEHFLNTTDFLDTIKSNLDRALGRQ

[2] = test system: U87MG pLVX-IDH2 R140Q-neo cells; assay: U87MG pLVX-IDH2 R140Q-neo cell based assay, 2-HG in media by LC-MS at 48 hours; conditions: Homo sapiens, U-87 MG
Summary of the method: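 2-HG secreted into the medium was measured by LC-MS after 48 h of compound treatment (0.2% DMSO final) of U87MG pLVX-IDH2 R140Q-neo cells in DMEM/10% FBS. The same wells were assayed at 72 h by CellTiter-Glo luminescence for effects on growth.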

[3] = biological target: T2, IDH2 R172K (Homo sapiens, UniProt P48735, R172K); assay: IDH2 R172K enzymatic assay (NADPH cofactor depletion, diaphorase/resazurin readout); type: biochemical; conditions: read-out: Enz R172K
T2 sequence (P48735 40-452 R172K): T1 sequence (P48735 40-452 R140Q) with Q101R, R133K
Procedure: Compounds are assayed for IDH2 R172K inhibitory activity through a cofactor depletion assay. […] The reaction is terminated by the addition of a second enzyme, diaphorase, and a corresponding substrate, resazurin. Diaphorase reduces resazurin to the highly fluorescent resorufin with the concomitant oxidation of NADPH to NADP, both halting the IDH2 reaction by depleting the available cofactor pool and facilitating quantitation of the amount of cofactor remaining after a specific time period through quantitative production of an easily detected fluorophore.
The test compound is then incubated for one hour at room temperature with the enzyme; before starting the IDH2 reaction with the addition of 10 μl of substrate mix containing 50 μM NADPH and 6.3 mM α-KG in the buffer described above. After a further one hour of incubation at room temperature, the reaction is halted and the remaining NADPH measured through conversion of resazurin to resorufin by the addition of 25 μl Stop Mix (36 μg/ml diaphorase enzyme and 60 μM resazurin; in buffer).

IC50 [1] | IC50 [2] | IC50 [3] | SMILES
< 100 nM | < 100 nM | 100 to 1000 nM | CCOc1cc(Nc2nc(NC(C)C)nc(-c3ccccc3)n2)ccn1 [Compound 200, N^2-(2-ethoxypyridin-4-yl)-N^4-isopropyl-6-phenyl-1,3,5-triazine-2,4-diamine]
< 100 nM | 100 to 1000 nM | 1000 to 10000 nM | CC(C)Nc1nc(Nc2cccc(C(C)(C)O)c2)nc(-c2ccccc2)n1 [Compound 201, 2-(3-(4-(isopropylamino)-6-phenyl-1,3,5-triazin-2-ylamino)phenyl)propan-2-ol]
< 100 nM | < 100 nM | < 100 nM | CC(C)Nc1nc(Nc2ccnc(C(F)(F)F)c2)nc(-c2ccccc2)n1 [Compound 202, N^2-isopropyl-6-phenyl-N^4-(2-(trifluoromethyl)pyridin-4-yl)-1,3,5-triazine-2,4-diamine]
< 100 nM | 100 to 1000 nM | 1000 to 10000 nM | CC(C)(O)CNc1nc(Nc2ccccc2)nc(-c2ccccc2)n1 [Compound 203, 2-methyl-1-(4-phenyl-6-phenylamino-[1,3,5]triazin-2-yl-amino)-propan-2-ol]
< 100 nM | 100 to 1000 nM | 1000 to 10000 nM | CCNS(=O)(=O)c1cccc(Nc2nc(NC(C)C)nc(-c3ccccc3)n2)c1 [Compound 204, N-ethyl-3-(4-(isopropylamino)-6-phenyl-1,3,5-triazin-2-ylamino)benzenesulfonamide]
< 100 nM | < 100 nM | 100 to 1000 nM | CCS(=O)(=O)c1cccc(Nc2nc(NC(C)C)nc(-c3ccccc3)n2)c1 [Compound 205, N^2-(3-(ethylsulfonyl)phenyl)-N^4-isopropyl-6-phenyl-1,3,5-triazine-2,4-diamine]
< 100 nM | 100 to 1000 nM | 100 to 1000 nM | CC(C)Nc1nc(Nc2cccc(S(=O)(=O)C(C)C)c2)nc(-c2ccccc2)n1 [Compound 206, N^2-isopropyl-N^4-(3-(isopropylsulfonyl)phenyl)-6-phenyl-1,3,5-triazine-2,4-diamine]
< 100 nM | 100 to 1000 nM | 100 to 1000 nM | CC(C)(C)COC(=O)Nc1nc(Nc2ccccc2)nc(-c2ccccc2)n1 [Compound 208, Neopentyl 4-phenyl-6-(phenylamino)-1,3,5-triazin-2-ylcarbamate]
< 100 nM | 100 to 1000 nM | 100 to 1000 nM | CCC(=O)Nc1nc(Nc2ccccc2)nc(-c2ccccc2)n1 [Compound 209, N-(4-phenyl-6-(phenylamino)-1,3,5-triazin-2-yl)propionamide]
< 100 nM | < 100 nM | 100 to 1000 nM | CC(C)Nc1nc(Nc2cncc(C#N)c2)nc(-c2ccccc2)n1 [Compound 210, 5-(4-(isopropylamino)-6-phenyl-1,3,5-triazin-2-ylamino)nicotinonitrile]
< 100 nM | 100 to 1000 nM | 100 to 1000 nM | CCCCNc1nc(Nc2ccncc2)nc(-c2ccccc2)n1 [Compound 211, N^2-butyl-6-phenyl-N^4-(pyridin-4-yl)-1,3,5-triazine-2,4-diamine]
< 100 nM | < 100 nM | 100 to 1000 nM | CC(C)CCNc1nc(Nc2ccncc2)nc(-c2ccccc2)n1 [Compound 212, N^2-isopentyl-6-phenyl-N^4-(pyridin-4-yl)-1,3,5-triazine-2,4-diamine]
< 100 nM | < 100 nM | 100 to 1000 nM | CC(C)C(C)Nc1nc(Nc2ccncc2)nc(-c2ccccc2)n1 (stereo not drawn) [Compound 213, N^2-(3-methylbutan-2-yl)-6-phenyl-N^4-(pyridin-4-yl)-1,3,5-triazine-2,4-diamine]
< 100 nM | 100 to 1000 nM | 100 to 1000 nM | CC(C)Nc1nc(Nc2ccccc2)nc(-c2ccccn2)n1 [Compound 214, N-Isopropyl-N′-phenyl-6-pyridin-2-yl-[1,3,5]triazine-2,4-diamine]
< 100 nM | 100 to 1000 nM | 1000 to 10000 nM | FC(F)(F)CNc1nc(Nc2ccncc2)nc(-c2ccccc2)n1 [Compound 215, 6-phenyl-N^2-(pyridin-4-yl)-N^4-(2,2,2-trifluoroethyl)-1,3,5-triazine-2,4-diamine]

The remaining lines, values behind:

SMILES | IC50 [1] | IC50 [2] | IC50 [3]
CC(C)Nc1nc(Nc2ccncc2)nc(-c2cccc(Cl)c2)n1 [Compound 185, 6-(3-chlorophenyl)-N^2-isopropyl-N^4-(pyridin-4-yl)-1,3,5-triazine-2,4-diamine] | < 100 nM | 100 to 1000 nM | 100 to 1000 nM
CCC(C)Nc1nc(Nc2ccncc2)nc(-c2ccccc2)n1 (stereo not drawn) [Compound 186, N^2-sec-butyl-6-phenyl-N^4-(pyridin-4-yl)-1,3,5-triazine-2,4-diamine] | < 100 nM | < 100 nM | 100 to 1000 nM
c1ccc(-c2nc(Nc3ccncc3)nc(NC3CCCC3)n2)cc1 [Compound 187] | < 100 nM | < 100 nM | 100 to 1000 nM
c1ccc(-c2nc(Nc3ccncc3)nc(NC3CCC3)n2)cc1 [Compound 188, N^2-cyclobutyl-6-phenyl-N^4-(pyridin-4-yl)-1,3,5-triazine-2,4-diamine] | < 100 nM | < 100 nM | 100 to 1000 nM
CC(C)(C)Nc1nc(Nc2ccncc2)nc(-c2ccccc2)n1 [Compound 189, N^2-tert-butyl-6-phenyl-N^4-(pyridin-4-yl)-1,3,5-triazine-2,4-diamine] | < 100 nM | 100 to 1000 nM | 1000 to 10000 nM
CC(C)CNc1nc(Nc2ccncc2)nc(-c2ccccc2)n1 [Compound 190, N^2-isobutyl-6-phenyl-N^4-(pyridin-4-yl)-1,3,5-triazine-2,4-diamine] | < 100 nM | < 100 nM | 100 to 1000 nM
CC(C)(C)CNc1nc(Nc2ccncc2)nc(-c2ccccc2)n1 [Compound 191, N^2-neopentyl-6-phenyl-N^4-(pyridin-4-yl)-1,3,5-triazine-2,4-diamine] | < 100 nM | < 100 nM | 100 to 1000 nM
CC(C)Nc1nc(Nc2cncc(F)c2)nc(-c2ccccc2)n1 [Compound 193, N^2-(5-fluoropyridin-3-yl)-N^4-isopropyl-6-phenyl-1,3,5-triazine-2,4-diamine] | < 100 nM | < 100 nM | 100 to 1000 nM
CC(C)Nc1nc(Nc2cncc(Cl)c2)nc(-c2ccccc2)n1 [Compound 194, N^2-(5-chloropyridin-3-yl)-N^4-isopropyl-6-phenyl-1,3,5-triazine-2,4-diamine] | < 100 nM | < 100 nM | < 100 nM
COCc1cccc(Nc2nc(NC(C)C)nc(-c3ccccc3)n2)c1 [Compound 195, N^2-isopropyl-N^4-(3-(methoxymethyl)phenyl)-6-phenyl-1,3,5-triazine-2,4-diamine] | < 100 nM | < 100 nM | 100 to 1000 nM
CC(C)Nc1nc(Nc2ccc(F)nc2)nc(-c2ccccc2)n1 [Compound 196, N^2-(6-fluoropyridin-3-yl)-N^4-isopropyl-6-phenyl-1,3,5-triazine-2,4-diamine] | < 100 nM | < 100 nM | 100 to 1000 nM
CC(C)Nc1nc(Nc2ccnc(C#N)c2)nc(-c2ccccc2)n1 [Compound 197, 4-(4-(isopropylamino)-6-phenyl-1,3,5-triazin-2-ylamino)picolinonitrile] | < 100 nM | < 100 nM | 100 to 1000 nM
CC(C)Nc1nc(Nc2cccc(CC#N)c2)nc(-c2ccccc2)n1 [Compound 198, 2-(3-(4-(isopropylamino)-6-phenyl-1,3,5-triazin-2-ylamino)phenyl)acetonitrile] | < 100 nM | < 100 nM | 100 to 1000 nM
CC(C)Nc1nc(Nc2ccnc(Cl)c2)nc(-c2ccccc2)n1 [Compound 199, N^2-(2-chloropyridin-4-yl)-N^4-isopropyl-6-phenyl-1,3,5-triazine-2,4-diamine] | < 100 nM | < 100 nM | < 100 nM
